Measured values published in patent publication US20250228840A1, “METHODS OF TREATING SJÖGREN-LARSSEN SYNDROME” (Aldeyra Therapeutics, Inc., priority 2022, published 2025).
Entries after “also recorded” stand apart in the source; their conditions may differ.

What was measured:
[1] = test system: cultured Chinese hamster cells lacking FALDH; experiment: Fatty aldehyde adducts, cytotoxicity and metabolism in cultured FALDH-deficient cells; assay type: cell-based
From the text: (§1) Aldehydes are toxic molecules due to their propensity to covalently attach to proteins and other target molecules containing certain reactive chemical groups. Drugs that detoxify reactive aldehydes are under development for various inflammatory conditions characterized by the excessive formation of aldehydes. […] This clinical trial will investigate the safety and biochemical efficacy of systemic administration of Compound 1 in SLS.
There are no satisfactory animal models of SLS, thereby limiting preclinical testing to in vitro cellular studies. […] The detoxified ADX-102-fatty aldehyde by-products are degraded intracellularly. Thus, treatment of cultured FALDH-deficient cells with ADX-102 bypasses the lost catabolic function of FALDH on aldehydes in SLS and diminishes aldehyde load.

Oral absorption = assay type: in vivo
From the text: as §1

[2] = test system: cultured Chinese hamster cells lacking FALDH; conditions: cultured FALDH-deficient cells; long-chain (C16-C18) fatty aldehydes; cited from earlier work
SLS subjects = conditions: applied topically as a cream; cited from earlier work
[3] = test system: allergic conjunctivitis and dry eye; conditions: ophthalmic preparation, Phase-2; cited from earlier work
[4] = Exemplary PK results after oral administration of I-1 unit dosage form, daily dose 20-1200 mg (Table 2); assay type: in vivo; conditions: human subject
Experimental: In some embodiments, a unit dosage form described herein that comprises compound I-1, or a pharmaceutically acceptable salt thereof, upon oral administration to a human subject in a daily dose of 20 mg, 50 mg, 100 mg, 200 mg, 400 mg, 700 mg, or 1200 mg (or about such doses, as the case may be), provides a pharmacokinetic result shown in the table below:
In some embodiments, the human subject is a healthy human subject.
In some embodiments, the pharmacokinetic result described herein is obtained in a healthy human subject.

Structure (SMILES): CC(C)(O)c1nc2ccc(Cl)cc2cc1N [ADX-102, 2-[3-amino-6-chloro-quinolin-2-yl]-propan-2-ol]
- fatty aldehyde cytotoxicity and apoptosis [1]: mitigate aldehyde cytotoxicity; also recorded: reverses fatty aldehyde cytotoxicity and apoptosis
- metabolism of fatty aldehyde to fatty alcohol ([1]; C18:0, octadecanal, data not shown): prevent metabolism of fatty aldehydes to fatty alcohols; also recorded: blocks the metabolism of fatty aldehyde (C18:0, octadecanal) to fatty alcohol
- effect on synthesis or degradation of fatty alcohol itself ([1]; data not shown): no effect
- oral absorption (Oral absorption): poor absorption qualities
- formation of fatty aldehyde covalent adducts with PE (NAPE) / cellular lipids [2]: block the formation of long-chain (C16-C18) fatty aldehyde adducts with cellular lipids; also recorded: prevents fatty aldehydes from forming covalent adducts with PE (NAPE)
- ichthyosis (SLS subjects): improve ichthyosis
- clinical activity in allergic conjunctivitis and dry eye [3]: beneficial activity

Structure (SMILES): CC(C)(O)c1nc2ccccc2cc1N [Compound I-1]
- AUCinf ([4]; daily dose 20 mg (or about)): 0.05 µg·h/mL
- Cmax ([4]; daily dose 20 mg (or about)): 0.0264 µg/mL
- AUCinf ([4]; daily dose 50 mg (or about)): 0.156 µg·h/mL
- Cmax ([4]; daily dose 50 mg (or about)): 0.0567 µg/mL
- AUCinf ([4]; daily dose 100 mg (or about)): 0.433 µg·h/mL
- Cmax ([4]; daily dose 100 mg (or about)): 0.14 µg/mL
- t1/2 ([4]; daily dose 100 mg (or about)): ~3.52 h
- AUCinf ([4]; daily dose 200 mg (or about)): 1.14 µg·h/mL
- Cmax ([4]; daily dose 200 mg (or about)): 0.459 µg/mL
- t1/2 ([4]; daily dose 200 mg (or about)): ~6.04 h
- AUCinf ([4]; daily dose 400 mg (or about)): 2.73 µg·h/mL
- Cmax ([4]; daily dose 400 mg (or about)): 0.869 µg/mL
- t1/2 ([4]; daily dose 400 mg (or about)): ~6.15 h
- AUCinf ([4]; daily dose 700 mg (or about)): 6.71 µg·h/mL
- Cmax ([4]; daily dose 700 mg (or about)): 2.02 µg/mL
- t1/2 ([4]; daily dose 700 mg (or about)): ~7.33 h
- AUCinf ([4]; daily dose 1200 mg (or about)): 14.5 µg·h/mL
- Cmax ([4]; daily dose 1200 mg (or about)): 4.22 µg/mL
- t1/2 ([4]; daily dose 1200 mg (or about)): ~7.69 h
- oral absorption (Oral absorption): well-absorbed orally
